Test results reported in patent publication US20100120715A1, “BETA-LACTAMASE INHIBITORS” (priority 2007, published 2010).

What was measured:
[1] = system: E. cloacae expressing the Class C P99+ AmpC; assay: microbe, parasite or virus in culture; assay type: cell-based; details: in the presence of fixed 8 μg/mL Ceftazidime
Excerpt: To determine the ability of test compounds to potentiate the inhibition of the growth of bacterial strains producing beta-lactamase enzymes, classic cell based screening assays were employed. Four bacteria strains producing beta-lactamase enzymes were used: K. pneumoniae expressing the Class A Extended Spectrum Beta-Lactamase (ESBL) CTX-M-15, E. coli expressing the Class A ESBL SHV-5, E. cloacae expressing the Class C P99+, and K. pneumoniae expressing the Class A carbapenemase KPC-2. In order to evaluate the ability of test compounds to inhibit beta-lactamase activity, Applicants used a modification of the broth microdilution assay. The assay was conducted in Cation Adjusted Mueller Hinton Broth (CAMHB, BD # 212322, BD Diagnostic Systems, Sparks, Md.). Bacteria strains were grown for 3-5 hours in CAMBH broth. All four strains were grown in presence of 50 μg/mL ampicillin to ensure resistance is maintained. In the meantime, test compounds were diluted in DMSO to a 0.1 mg/mL stock. The compounds were added to a microtiter plate and were diluted in 2-fold serial dilutions in CAMHB in a final concentration range of 8 μg/mL to 0.015 μg/ml. An overlay of CAMHB containing a cephalosporin was added to the compounds at a final static concentration of 8 μg/ml. […] Each of these compound plates are made in quadruplicate, one for each bacteria strain. In addition to the titration of test compounds the MICs of a panel of cephalosporins is also tested to ensure the strains are behaving consistently from test to test. Once the test compound and cephalosporin are added the plates can be inoculated. Inocula are conducted according to CLSI broth microdilution method. After inoculation the plates are incubated for 16-20 hours at 37° C. then the Minimal Inhibitory Concentration (MIC) of the test compound is determined visually.

[2] = system: K. pneumoniae expressing the Class A carbapenemase KPC-2; assay: microbe, parasite or virus in culture; details: in the presence of fixed 8 μg/mL Ceftazidime
[3] = target: T1, Class C P99 AmpC (Enterobacter cloacae, UniProt P05364); assay type: biochemical; details: purified enzyme; nitrocefin 100 μM, PBS pH 7.0; read-out: P99 AmpC IC50 Range
T1 construct: made in house; host or cells: E. coli BL21(DE3)
T1 sequence (P05364 21-381): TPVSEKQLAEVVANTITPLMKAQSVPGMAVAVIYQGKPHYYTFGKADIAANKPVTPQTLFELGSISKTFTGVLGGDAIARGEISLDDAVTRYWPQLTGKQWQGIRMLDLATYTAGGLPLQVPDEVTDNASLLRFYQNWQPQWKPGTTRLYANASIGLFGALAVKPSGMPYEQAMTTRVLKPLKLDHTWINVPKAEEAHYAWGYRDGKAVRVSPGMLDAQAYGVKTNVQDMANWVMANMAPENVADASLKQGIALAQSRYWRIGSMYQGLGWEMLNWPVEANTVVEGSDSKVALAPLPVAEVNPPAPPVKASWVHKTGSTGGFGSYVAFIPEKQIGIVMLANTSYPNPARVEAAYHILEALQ
Procedure, shortened: (§1)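 Native untagged enzymes were expressed in E. coli BL21(DE3) and purified by cation exchange and gel filtration. Compound series (100–0.005 μM in PBS pH 7.0, before addition of an equal enzyme volume) were preincubated with enzyme 10 min at 37°C. Nitrocefin (100 μM final) hydrolysis was read kinetically at 486 nm for 10 min, and IC50 was taken as 50% reduction of initial rate versus no-inhibitor wells.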

[4] = target: T2, Class A ESBL CTXM-15 (Escherichia coli, UniProt Q9EXV5); assay: β-lactamase enzyme inhibition (nitrocefin hydrolysis), CTXM-15; assay type: biochemical; details: purified enzyme; nitrocefin 100 μM, PBS pH 7.0; read-out: CTXM-15 IC50 Range
T2 construct: made in house; host or cells: E. coli BL21(DE3)
T2 sequence (Q9EXV5 entry or part of it): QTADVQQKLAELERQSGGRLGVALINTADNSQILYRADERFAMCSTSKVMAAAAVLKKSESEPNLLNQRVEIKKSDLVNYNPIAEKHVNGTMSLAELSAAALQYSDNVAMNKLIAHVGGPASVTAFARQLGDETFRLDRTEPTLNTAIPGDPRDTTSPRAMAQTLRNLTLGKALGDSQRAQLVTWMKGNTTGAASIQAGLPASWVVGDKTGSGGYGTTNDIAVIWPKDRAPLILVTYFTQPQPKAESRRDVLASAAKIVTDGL
Procedure, shortened: as §1

[5] = system: K. pneumoniae expressing the Class A ESBL CTX-M-15; assay: microbe, parasite or virus in culture; assay type: cell-based; details: in the presence of fixed 8 μg/mL Ceftazidime
[6] = target: T3, Class A ESBL SHV-5 (Klebsiella pneumoniae, UniProt P0A3M1); assay type: biochemical, E. coli; details: cellular extracts of E. coli containing SHV-5 (Examples 2-30); nitrocefin 100 μM, PBS pH 7.0; read-out: SHV-5 IC50 Range
T3 construct: made in house; host or cells: E. coli BL21(DE3) for purified enzyme; E. coli cells containing SHV-5 for extracts
T3 sequence (P0A3M1 22-286): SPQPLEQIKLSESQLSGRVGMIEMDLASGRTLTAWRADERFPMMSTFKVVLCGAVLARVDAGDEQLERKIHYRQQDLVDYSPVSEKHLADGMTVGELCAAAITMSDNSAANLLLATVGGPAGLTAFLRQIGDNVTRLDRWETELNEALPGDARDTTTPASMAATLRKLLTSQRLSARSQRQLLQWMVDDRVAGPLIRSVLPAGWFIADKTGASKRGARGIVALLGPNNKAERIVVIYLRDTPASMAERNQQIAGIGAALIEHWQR

[7] = target: T4, Class A carbapenemase KPC-2 (Klebsiella pneumoniae, UniProt Q9F663); assay: β-lactamase enzyme inhibition (nitrocefin hydrolysis), KPC-2; assay type: biochemical; details: purified enzyme; nitrocefin 100 μM, PBS pH 7.0; read-out: KPC-2 IC50 Range
T4 construct: made in house; host or cells: E. coli BL21(DE3)
T4 sequence (Q9F663 25-293 limits assumed): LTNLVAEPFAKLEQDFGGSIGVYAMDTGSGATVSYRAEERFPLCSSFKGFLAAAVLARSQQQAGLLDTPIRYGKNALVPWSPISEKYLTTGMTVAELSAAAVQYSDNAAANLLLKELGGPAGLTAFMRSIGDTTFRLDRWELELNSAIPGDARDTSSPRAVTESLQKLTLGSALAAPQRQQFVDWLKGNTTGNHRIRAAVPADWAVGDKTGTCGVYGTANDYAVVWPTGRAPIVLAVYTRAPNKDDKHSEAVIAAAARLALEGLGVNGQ
Procedure, shortened: as §1

O=C(CCC(=O)c1cccs1)N[C@@H](Cc1cccc(C(=O)O)c1O)B(O)O [Example 5, (1R)-1-(4-Oxo-4-thiophen-2-yl-butyrylamino)-2-(2-hydroxy-3-carboxyphenyl)ethyl-1-boronic acid]
MIC of example compound, E. cloacae P99 AmpC + 8 μg/mL CAZ [1]: C (C represents an MIC of <1 μg/mL)
MIC of example compound, K. pneumoniae KPC-2 + 8 μg/mL CAZ [2]: C (C represents an MIC of <1 μg/mL)
IC50 [3]: < 10 nM
IC50 [4]: < 10 nM
MIC of example compound, K. pneumoniae CTX-M-15 + 8 μg/mL CAZ [5]: C (C represents an MIC of <1 μg/mL)
IC50 [6]: < 10 nM

O=C(N[C@@H](Cc1cccc(C(=O)O)c1O)B(O)O)c1cccs1 [Example 11, (1R)-1-(thiophene-2-carbonyl-amino)-2-(2-hydroxy-3-carboxyphenyl)ethyl-1-boronic acid]
MIC of example compound, E. cloacae P99 AmpC + 8 μg/mL CAZ [1]: C (C represents an MIC of <1 μg/mL)
MIC of example compound, K. pneumoniae KPC-2 + 8 μg/mL CAZ [2]: C (C represents an MIC of <1 μg/mL)
IC50 [3]: < 10 nM
IC50 [4]: < 10 nM
MIC of example compound, K. pneumoniae CTX-M-15 + 8 μg/mL CAZ [5]: C (C represents an MIC of <1 μg/mL)
IC50 [6]: 10 to 100 nM

O=C(N[C@@H](Cc1cccc(C(=O)O)c1O)B(O)O)c1ccccc1 [Example 13, (1R)-1-Benzoylamino-1-(3-carboxy-2-hydroxy)benzyl-methylboronic acid]
MIC of example compound, E. cloacae P99 AmpC + 8 μg/mL CAZ [1]: C (C represents an MIC of <1 μg/mL)
MIC of example compound, K. pneumoniae KPC-2 + 8 μg/mL CAZ [2]: C (C represents an MIC of <1 μg/mL)
IC50 [3]: < 10 nM
IC50 [4]: 10 to 100 nM
MIC of example compound, K. pneumoniae CTX-M-15 + 8 μg/mL CAZ [5]: C (C represents an MIC of <1 μg/mL)
IC50 [6]: 10 to 100 nM
IC50 [7]: < 10 nM

CC(C)C(=O)N[C@@H](Cc1cccc(C(=O)O)c1O)B(O)O [Example 14, (1R)-1-Isobutyrylamino-1-(3-carboxy-2-hydroxy)benzyl-methylboronic acid]
MIC of example compound, E. cloacae P99 AmpC + 8 μg/mL CAZ [1]: C (C represents an MIC of <1 μg/mL)
MIC of example compound, K. pneumoniae KPC-2 + 8 μg/mL CAZ [2]: C (C represents an MIC of <1 μg/mL)
IC50 [3]: < 10 nM
IC50 [4]: 10 to 100 nM
MIC of example compound, K. pneumoniae CTX-M-15 + 8 μg/mL CAZ [5]: C (C represents an MIC of <1 μg/mL)
IC50 [6]: 100 to 1000 nM

O=C(O)c1cccc(C[C@H](NC(=O)C2CCCC2)B(O)O)c1O [Example 15, (1R)-1-Cyclopentanecarbonylamino-(3-carboxy-2-hydroxy)benzyl-methylboronic acid]
MIC of example compound, E. cloacae P99 AmpC + 8 μg/mL CAZ [1]: C (C represents an MIC of <1 μg/mL)
MIC of example compound, K. pneumoniae KPC-2 + 8 μg/mL CAZ [2]: C (C represents an MIC of <1 μg/mL)
IC50 [3]: < 10 nM
IC50 [4]: 10 to 100 nM
MIC of example compound, K. pneumoniae CTX-M-15 + 8 μg/mL CAZ [5]: C (C represents an MIC of <1 μg/mL)
IC50 [6]: 100 to 1000 nM

CCC(=O)N[C@@H](Cc1cccc(C(=O)O)c1O)B(O)O [Example 16, (1R)-1-(propionylamino)-2-(2-hydroxy-3-carboxyphenyl)ethyl-1-boronic acid]
MIC of example compound, E. cloacae P99 AmpC + 8 μg/mL CAZ [1]: C (C represents an MIC of <1 μg/mL)
MIC of example compound, K. pneumoniae KPC-2 + 8 μg/mL CAZ [2]: C (C represents an MIC of <1 μg/mL)
IC50 [3]: 10 to 100 nM
IC50 [4]: 10 to 100 nM
MIC of example compound, K. pneumoniae CTX-M-15 + 8 μg/mL CAZ [5]: C (C represents an MIC of <1 μg/mL)
IC50 [6]: 100 to 1000 nM
IC50 [7]: 10 to 100 nM

O=C(O)c1cccc(C[C@H](NC(=O)C2CC2)B(O)O)c1O [Example 20, (1R)-1-Cyclopropanecarbonyl-amino-1-(3-carboxy-2-hydroxy)benzyl-methylboronic acid]
MIC of example compound, E. cloacae P99 AmpC + 8 μg/mL CAZ [1]: C (C represents an MIC of <1 μg/mL)
MIC of example compound, K. pneumoniae KPC-2 + 8 μg/mL CAZ [2]: C (C represents an MIC of <1 μg/mL)
IC50 [3]: < 10 nM
IC50 [4]: < 10 nM
MIC of example compound, K. pneumoniae CTX-M-15 + 8 μg/mL CAZ [5]: C (C represents an MIC of <1 μg/mL)
IC50 [6]: 100 to 1000 nM
IC50 [7]: 10 to 100 nM
